According to PubChem BioAssay (NCI):
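Protocol summary: plate cells (96-well), add compound at 5 concentrations, incubate 48 h, interpolate endpoints linearly. GI50 marks 50% less growth. At the TGI there is no net growth.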

Legend:
Assay in all cases: NCI tumour cell line growth inhibition, 48 h
[1] = tested on: M14 melanoma
[2] = tested on: LXFL 529 NSCLC
[3] = tested on: SNB-78 CNS
[4] = tested on: LOX IMVI melanoma
[5] = tested on: SR leukemia
[6] = tested on: CAKI-1 renal
[7] = tested on: DU-145 prostate
[8] = tested on: NCI/ADR-RES ovarian
[9] = tested on: HS 578T breast
[10] = tested on: MCF7 breast
[11] = tested on: BT-549 breast

## CN(CCO)/N=N/c1nc[nH]c1C(N)=O
[1]
  TGI: > 100 µM
[2]
  TGI: > 100 µM
[3]
  TGI: > 100 µM
[4]
  TGI: > 100 µM
[5]
  TGI: > 100 µM

## CCOC(=O)/C(=N/Nc1ccc(Cl)cc1)N1C(=S)C=C(C)NN(C)C1=S
[6]
  TGI: > 100 µM
[1]
  TGI: > 100 µM
[7]
  TGI: > 100 µM
[8]
  TGI: > 100 µM
[9]
  TGI: > 100 µM
[10]
  TGI: > 100 µM
[5]
  TGI: > 100 µM

## C/C(=N\NC(=S)Nc1ccc(Cl)cc1)c1nc2ncccc2[nH]1
[6]
  TGI: 33.2 µM
[1]
  TGI: 6.54 µM
[7]
  TGI: 14.1 µM
[4]
  TGI: 13.1 µM
[8]
  TGI: 53.4 µM
[9]
  TGI: 71.8 µM
[10]
  TGI: 11.2 µM
[5]
  TGI: > 100 µM
[11]
  TGI: 11.1 µM

## Cc1ncc(CO)c(C=NCCCCCCN=Cc2c(CO)cnc(C)c2O)c1O
[6]
  TGI: > 100 µM
[1]
  TGI: > 100 µM
[7]
  TGI: > 100 µM
[4]
  TGI: > 100 µM
[8]
  TGI: > 100 µM
[9]
  TGI: > 100 µM
[10]
  TGI: > 100 µM
[5]
  TGI: > 100 µM
[11]
  TGI: > 100 µM

## Cc1nc(N(CCO)CCO)c2sc(=S)n(-c3ccccc3)c2n1
[2]
  TGI: > 100 µM
[5]
  TGI: > 100 µM

## NC(=S)N/N=C/c1ccc(OC(=O)COc2ccccc2Cl)cn1
[6]
  TGI: > 100 µM
[3]
  TGI: > 100 µM
[4]
  TGI: > 100 µM
[8]
  TGI: 59.3 µM
[10]
  TGI: > 100 µM

## COc1cc(C2S/C(=C/c3ccccc3)C(=O)N2c2ccccc2Cl)cc(OC)c1OC (stereo not given)
[6]
  TGI: > 100 µM
[1]
  TGI: 60.5 µM
[4]
  TGI: 44.9 µM
[8]
  TGI: 94.7 µM
[9]
  TGI: 47.5 µM
[10]
  TGI: > 100 µM
[11]
  TGI: > 100 µM

## COC(=O)C1=C(O)C(C(=O)OC)[C@@]2(O)[C@@H](C(=O)OC)CC[C@@H]1[C@@H]2C(=O)OC (stereo not given in full)
[1]
  TGI: 62.6 µM
[7]
  TGI: > 100 µM
[4]
  TGI: 76.8 µM
[9]
  TGI: 33.9 µM
[10]
  TGI: > 100 µM
[5]
  TGI: 63.9 µM
[11]
  TGI: > 100 µM

## O=C(O)CN=c1c2ccccc2n(O)c2ccccc12
[6]
  TGI: > 100 µM
[1]
  TGI: > 100 µM
[2]
  TGI: > 100 µM
[3]
  TGI: > 100 µM
[4]
  TGI: > 100 µM

## BrC1=CN2C[n+]3cc(Br)c4ccccc4c3N=C2c2ccccc21
[6]
  TGI: 48.1 µM
[1]
  TGI: 18.4 µM
[7]
  TGI: 33.3 µM
[4]
  TGI: 34.2 µM
[8]
  TGI: > 100 µM
[9]
  TGI: 61 µM
[10]
  TGI: 21.5 µM
[5]
  TGI: 9.01 µM
[11]
  TGI: 37.2 µM

## COc1cc(Cc2ccc3c(c2C#N)N(C)c2ccccc2S3)cc(OC)c1OC
[1]
  TGI: > 100 µM
[2]
  TGI: > 100 µM
[3]
  TGI: > 100 µM
[4]
  TGI: > 100 µM
[5]
  TGI: > 100 µM

## C/C([O-])=C(/c1nc(-c2ccc([N+](=O)[O-])o2)no1)[n+]1cc(C)ccc1C
[6]
  TGI: 28.7 µM
[3]
  TGI: > 100 µM
[4]
  TGI: 21.8 µM
[8]
  TGI: > 100 µM
[10]
  TGI: 16.2 µM

## Cc1ccc(S(=O)(=O)Nc2cc(Sc3ccccc3)c(O)c3ccccc23)cc1
[6]
  GI50: 3.16 µM
  TGI: 9.19 µM
[1]
  GI50: 6.49 µM
  TGI: 19.9 µM
[7]
  GI50: 3.83 µM
  TGI: 13.6 µM
[4]
  GI50: 2.34 µM
  TGI: 7.96 µM
[8]
  GI50: 3 µM
  TGI: 9.31 µM
[9]
  GI50: 3.27 µM
  TGI: 10.8 µM
[10]
  GI50: 1.95 µM
  TGI: 4.79 µM
[5]
  GI50: 3.27 µM
  TGI: 12.6 µM
[11]
  GI50: 11.9 µM
  TGI: 24.2 µM

## COc1cc2nc(N3CCC[C@@H](NC4=CC(=O)c5ccccc5C4=O)C3)nc(N)c2cc1OC
[6]
  GI50: 2.02 µM
  TGI: 4.12 µM
[7]
  GI50: 2.03 µM
  TGI: 3.78 µM
[9]
  GI50: 2.14 µM
  TGI: 4.95 µM
[10]
  GI50: 1.71 µM
  TGI: 3.39 µM
[5]
  GI50: 0.266 µM
  TGI: 0.892 µM
[11]
  GI50: 2.1 µM
  TGI: 4.66 µM

## CCOC(=O)C(=O)Nc1cccc(C)c1C
[6]
  TGI: > 100 µM
[1]
  TGI: > 100 µM
[2]
  TGI: > 100 µM
[3]
  TGI: > 100 µM
[5]
  TGI: > 100 µM
